Consider 14 compounds from patent publication US10894786B2, “Substituted pyrazole derivatives as selective CDK12/13 inhibitors” (Aurigene Discovery Technologies Limited, priority 2018, dated 2021).

The target of assay [1] is CDK13 (Homo sapiens (Human), UniProt Q14004). As to the kind of experiment: Biochemical assay for CDK13, LanthaScreen Eu Kinase Binding Assay. The settings on record: for IC50: kinase tracer 236 100 nM; for Ratio CDK7/CDK13: ratio of IC50. An excerpt:
Binding of an inhibitor to the kinase competes for binding with the tracer, resulting in a loss of FRET signal.

Assay [2] addresses T1, CDK12 (Homo sapiens (Human), UniProt Q9NYV4). Description: Biochemical assay for CDK12 (IC50 determination), LANCE TR-FRET. Conditions: for IC50: ATP 100 μM, 60 min pre-incubation. The method, then:
The inhibitory activity of the test compounds was assessed by the LANCE TR-FRET assay, which detects the ATP-dependent phosphorylation of an ULight-4E-BP1 (Thr37/Thr46) substrate peptide (100 nM) by CDK12 (30 nM). Briefly, the enzyme reaction was run in reaction buffer (25 mM HEPES (pH 7.5), 10 mM MgCl2, 0.01% BSA, 0.01% Triton x, 1 mM DTT). The assay was performed in 384-well plate format. The end concentration of the ATP substrate was 100 μM, and that of the ULight-4E-BP1 (Thr37/Thr46) substrate peptide was 100 nM, and of CDK12 was 30 nM. Pre-incubation of the compound and enzyme was performed for 60 min at room temperature. After 60 min incubation at room temperature, the reaction was terminated by the addition of 40 mM EDTA and 0.5 nM Eu-labeled anti-phospho-eIF4E-binding protein (Thr37/46) antibody in LANCE detection buffer. […] The readout was calculated as (acceptor counts/donor counts)×1000. The IC50 values were derived by fitting a sigmoidal dose-response curve to a plot of assay readout over inhibitor concentration.
In general terms: In TR-FRET formats the signal depends on donor and acceptor labels being close together.
Target sequence in this assay (Q9NYV4 whole entry, looked up, species assumed): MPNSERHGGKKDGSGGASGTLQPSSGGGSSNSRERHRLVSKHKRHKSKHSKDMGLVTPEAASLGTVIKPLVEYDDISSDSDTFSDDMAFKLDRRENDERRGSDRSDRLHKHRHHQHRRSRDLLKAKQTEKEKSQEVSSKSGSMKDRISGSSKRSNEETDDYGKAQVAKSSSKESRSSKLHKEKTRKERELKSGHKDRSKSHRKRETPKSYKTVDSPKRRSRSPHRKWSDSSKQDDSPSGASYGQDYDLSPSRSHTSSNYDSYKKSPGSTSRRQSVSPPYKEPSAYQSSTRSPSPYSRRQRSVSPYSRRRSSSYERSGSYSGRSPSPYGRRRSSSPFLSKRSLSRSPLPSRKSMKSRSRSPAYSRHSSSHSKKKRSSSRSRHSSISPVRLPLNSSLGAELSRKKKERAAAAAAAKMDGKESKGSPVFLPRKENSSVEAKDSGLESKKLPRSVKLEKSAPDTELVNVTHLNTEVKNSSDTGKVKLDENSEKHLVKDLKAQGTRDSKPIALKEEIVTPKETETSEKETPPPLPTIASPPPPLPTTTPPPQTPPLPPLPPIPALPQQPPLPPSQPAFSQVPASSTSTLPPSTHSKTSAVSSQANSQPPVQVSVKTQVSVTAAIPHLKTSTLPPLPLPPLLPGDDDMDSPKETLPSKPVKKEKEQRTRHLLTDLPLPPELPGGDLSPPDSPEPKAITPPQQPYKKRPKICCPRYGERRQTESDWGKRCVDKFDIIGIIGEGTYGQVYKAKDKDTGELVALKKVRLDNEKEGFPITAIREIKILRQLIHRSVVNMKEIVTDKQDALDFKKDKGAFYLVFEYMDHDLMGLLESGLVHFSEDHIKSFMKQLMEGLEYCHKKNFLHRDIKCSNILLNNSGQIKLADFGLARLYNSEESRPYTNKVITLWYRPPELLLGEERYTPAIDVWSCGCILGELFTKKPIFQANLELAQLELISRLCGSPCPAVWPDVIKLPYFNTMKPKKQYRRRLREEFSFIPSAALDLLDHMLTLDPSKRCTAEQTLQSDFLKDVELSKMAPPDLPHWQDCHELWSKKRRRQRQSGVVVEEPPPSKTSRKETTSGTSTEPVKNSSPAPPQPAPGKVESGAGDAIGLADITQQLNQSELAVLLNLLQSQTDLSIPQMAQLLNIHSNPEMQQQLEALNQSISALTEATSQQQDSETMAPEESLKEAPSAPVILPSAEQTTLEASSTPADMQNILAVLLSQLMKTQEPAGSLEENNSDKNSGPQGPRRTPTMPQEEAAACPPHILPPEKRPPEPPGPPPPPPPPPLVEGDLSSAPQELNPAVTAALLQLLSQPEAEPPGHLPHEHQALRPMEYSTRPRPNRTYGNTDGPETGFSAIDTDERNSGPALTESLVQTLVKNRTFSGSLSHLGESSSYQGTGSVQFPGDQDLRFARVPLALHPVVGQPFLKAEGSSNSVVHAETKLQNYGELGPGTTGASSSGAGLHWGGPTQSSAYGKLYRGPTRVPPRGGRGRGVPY
Target sequence in this assay (O75909 whole entry partner, looked up, species assumed): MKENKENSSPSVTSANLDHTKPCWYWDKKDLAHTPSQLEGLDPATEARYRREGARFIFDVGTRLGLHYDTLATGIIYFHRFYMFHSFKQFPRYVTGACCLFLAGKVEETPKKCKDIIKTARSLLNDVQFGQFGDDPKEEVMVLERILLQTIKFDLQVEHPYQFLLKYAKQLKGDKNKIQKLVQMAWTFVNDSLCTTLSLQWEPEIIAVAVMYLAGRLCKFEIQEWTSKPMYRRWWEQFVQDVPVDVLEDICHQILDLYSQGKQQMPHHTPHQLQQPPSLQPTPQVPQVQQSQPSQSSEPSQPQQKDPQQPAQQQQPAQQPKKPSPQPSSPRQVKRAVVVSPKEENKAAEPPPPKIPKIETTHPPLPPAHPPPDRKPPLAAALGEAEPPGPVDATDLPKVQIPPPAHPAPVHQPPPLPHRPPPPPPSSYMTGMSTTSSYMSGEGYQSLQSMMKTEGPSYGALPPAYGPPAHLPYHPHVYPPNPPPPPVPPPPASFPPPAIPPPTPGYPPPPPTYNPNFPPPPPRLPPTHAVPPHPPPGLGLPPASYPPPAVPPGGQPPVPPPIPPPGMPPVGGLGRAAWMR

Assay [3] deals with T1, CDK12. Description: CDK12 plate based target engagement assay in Jurkat cells. In kind it is cell-based. Here is the method:
Jurkat cells were treated with varying concentrations of the compound for 6 hours. The DMSO concentration was maintained at 0.1%. Cells were harvested and lysed. 200 μg of the lysate was incubated with 1 μM Bio-THZ531 in the presence of 1 mM DTT and incubated on a rocker at 4° C. overnight. 100 μL of this sample was added to pre-washed streptavidin coated plates and incubated at room temperature on a rocker for 2 hours. The plates were washed and incubated with CDK12 antibody for overnight at 4° C. Next day the plate was washed and incubated for 2 hours with HRP labelled anti rabbit secondary antibody. Bio-THZ531 bound CDK12 was determined using TMB substrate. […] Percentage CDK12 occupancy with the test compound was calculated over untreated control. Occupancy 50 was calculated by fitting the dose response data to sigmoidal curve fitting equation using GraphPad Prism software V5.
Target sequence in this assay (Q9NYV4 whole entry, looked up): as the sequence (Q9NYV4 whole entry, looked up, species assumed) above
Target sequence in this assay (O75909 whole entry partner, looked up): as the sequence (O75909 whole entry partner, looked up, species assumed) above

Assay [4] addresses T1, CDK12. As to the kind of experiment: Biochemical assay for CDK12 (Kd determination), kinase-tagged phage/qPCR competition binding. The method, then:
Kinase-tagged T7 phage strains were grown in parallel in 24-well blocks in an E. coli host derived from the BL21 strain. E. coli were grown to log-phase and infected with T7 phage from a frozen stock (multiplicity of infection=0.4) and incubated with shaking at 32° C. until lysis (90-150 minutes). The lysates were centrifuged (6,000×g) and filtered (0.2 μm) to remove cell debris. The remaining kinases were produced in HEK-293 cells and subsequently tagged with DNA for qPCR detection. […] The liganded beads were blocked with excess biotin and washed with blocking buffer (SeaBlock (Pierce), 1% BSA, 0.05% Tween 20, 1 mM DTT) to remove unbound ligand and to reduce non-specific phage binding. […] Test compounds were prepared as 40× stocks in 100% DMSO and directly diluted into the assay. All reactions were performed in polypropylene 384-well plates in a final volume of 0.02 ml. […] The kinase concentration in the eluates was measured by qPCR.
In general terms: In qPCR the cycle at which signal appears reflects the starting amount.
Target sequence in this assay (Q9NYV4 whole entry, species assumed): as the sequence (Q9NYV4 whole entry, looked up, species assumed) above

Assay [5] addresses CDK7 (Homo sapiens (Human), UniProt P50613). Description: Biochemical assay for CDK7, LANCE TR-FRET. The settings on record: read-out: CDK 7 IC50. The method, then:
The inhibitory activity of the test compounds was assessed by the LANCE TR-FRET assay, which detects the ATP-dependent phosphorylation of an ULight-myelin basic protein (MBP) substrate peptide (100 nM) by CDK7 (10 nM). Briefly, the enzyme reaction was run in reaction buffer (20 mM HEPES (pH 7.5), 10 mM MgCl2, 0.01% Triton x, 100 μM Sodium Orthovanadate, 1 mM DTT). The assay was performed in 384-well plate. The end concentration of the ATP substrate was 1 mM/100 μM, and that of the ULight-MBP substrate peptide was 100 nM, and of CDK7 was 10 nM. Pre-incubation of the compound and enzyme was performed for 60 min at room temperature. After 60 min incubation at room temperature, the reaction was terminated by the addition of 40 mM EDTA and 1 nM Eu-labeled anti-phospho-MBP-binding protein antibody in the buffer. […] The readout was calculated as (acceptor counts/donor counts)×1000. The IC50 values were derived by fitting a sigmoidal dose-response curve to a plot of assay readout over inhibitor concentration.

Where [6] appears, read: ATP 1 mM/100 μM, 60 min pre-incubation.

Where two headings read alike, the source gives them in different places. Some results are limits rather than exact numbers.

Chain of CDK13 (Q14004 whole entry, looked up, species assumed): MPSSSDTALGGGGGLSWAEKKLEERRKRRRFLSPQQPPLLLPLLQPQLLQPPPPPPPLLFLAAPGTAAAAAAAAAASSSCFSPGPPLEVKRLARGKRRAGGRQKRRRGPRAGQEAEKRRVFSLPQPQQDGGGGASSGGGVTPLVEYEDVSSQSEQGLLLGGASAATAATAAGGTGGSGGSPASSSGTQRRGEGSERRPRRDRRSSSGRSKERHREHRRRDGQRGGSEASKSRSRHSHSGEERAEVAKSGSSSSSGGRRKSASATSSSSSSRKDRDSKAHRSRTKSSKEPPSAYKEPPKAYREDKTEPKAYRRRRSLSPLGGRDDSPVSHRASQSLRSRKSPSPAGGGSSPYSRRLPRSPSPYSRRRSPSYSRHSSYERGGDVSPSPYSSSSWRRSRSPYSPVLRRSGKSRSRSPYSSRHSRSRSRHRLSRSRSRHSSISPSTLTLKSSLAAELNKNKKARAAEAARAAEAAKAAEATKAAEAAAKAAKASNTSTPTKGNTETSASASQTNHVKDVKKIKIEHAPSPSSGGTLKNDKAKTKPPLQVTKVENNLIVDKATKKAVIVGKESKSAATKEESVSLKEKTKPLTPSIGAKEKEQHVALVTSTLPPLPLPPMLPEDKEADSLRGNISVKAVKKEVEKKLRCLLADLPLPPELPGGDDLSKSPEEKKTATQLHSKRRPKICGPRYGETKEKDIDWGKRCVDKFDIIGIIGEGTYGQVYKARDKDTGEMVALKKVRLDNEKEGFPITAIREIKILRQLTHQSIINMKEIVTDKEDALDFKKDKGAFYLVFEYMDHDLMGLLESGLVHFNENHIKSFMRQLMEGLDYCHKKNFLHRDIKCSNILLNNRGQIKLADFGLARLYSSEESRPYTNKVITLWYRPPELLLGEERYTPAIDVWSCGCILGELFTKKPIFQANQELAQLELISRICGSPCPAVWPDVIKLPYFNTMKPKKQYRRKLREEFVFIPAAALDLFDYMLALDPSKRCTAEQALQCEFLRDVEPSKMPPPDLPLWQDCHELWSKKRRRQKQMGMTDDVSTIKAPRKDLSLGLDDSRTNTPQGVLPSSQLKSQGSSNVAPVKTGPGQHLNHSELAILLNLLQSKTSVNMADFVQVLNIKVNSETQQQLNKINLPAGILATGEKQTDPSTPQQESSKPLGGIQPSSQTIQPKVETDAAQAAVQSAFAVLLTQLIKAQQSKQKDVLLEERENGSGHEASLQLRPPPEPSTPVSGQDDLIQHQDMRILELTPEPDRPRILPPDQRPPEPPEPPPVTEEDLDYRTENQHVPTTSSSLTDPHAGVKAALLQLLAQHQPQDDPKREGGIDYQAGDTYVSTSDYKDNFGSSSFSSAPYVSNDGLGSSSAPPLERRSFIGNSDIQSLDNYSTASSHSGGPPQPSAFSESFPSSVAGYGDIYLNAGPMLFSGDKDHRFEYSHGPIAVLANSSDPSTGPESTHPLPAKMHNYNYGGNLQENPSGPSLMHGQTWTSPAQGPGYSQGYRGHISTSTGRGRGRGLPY
Chain of CDK13 (O75909 whole entry partner, looked up, species assumed): as the sequence (O75909 whole entry partner, looked up, species assumed) above
Chain of CDK7 (P50613 whole entry, looked up, species assumed): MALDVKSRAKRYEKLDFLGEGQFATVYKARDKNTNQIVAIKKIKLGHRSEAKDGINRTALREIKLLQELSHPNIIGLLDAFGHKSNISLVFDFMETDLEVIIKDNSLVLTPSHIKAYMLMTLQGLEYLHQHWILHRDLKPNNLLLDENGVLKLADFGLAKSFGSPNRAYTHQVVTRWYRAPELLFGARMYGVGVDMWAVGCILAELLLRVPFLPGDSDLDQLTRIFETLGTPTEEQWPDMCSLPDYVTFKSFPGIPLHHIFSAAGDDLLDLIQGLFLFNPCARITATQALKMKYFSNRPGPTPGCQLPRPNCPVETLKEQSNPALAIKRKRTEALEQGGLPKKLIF
Chain of CDK7 (P51946 whole entry partner, looked up, species assumed): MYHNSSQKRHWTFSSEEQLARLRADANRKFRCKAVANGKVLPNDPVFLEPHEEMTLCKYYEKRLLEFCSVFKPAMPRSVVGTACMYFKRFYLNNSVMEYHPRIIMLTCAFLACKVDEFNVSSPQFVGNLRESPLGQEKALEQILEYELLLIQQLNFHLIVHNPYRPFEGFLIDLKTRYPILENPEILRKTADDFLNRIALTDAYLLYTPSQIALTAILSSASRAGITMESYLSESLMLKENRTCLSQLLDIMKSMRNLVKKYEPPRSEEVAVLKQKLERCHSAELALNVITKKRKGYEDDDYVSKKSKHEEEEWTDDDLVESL
Chain of CDK7 (P51948 whole entry partner, looked up, species assumed): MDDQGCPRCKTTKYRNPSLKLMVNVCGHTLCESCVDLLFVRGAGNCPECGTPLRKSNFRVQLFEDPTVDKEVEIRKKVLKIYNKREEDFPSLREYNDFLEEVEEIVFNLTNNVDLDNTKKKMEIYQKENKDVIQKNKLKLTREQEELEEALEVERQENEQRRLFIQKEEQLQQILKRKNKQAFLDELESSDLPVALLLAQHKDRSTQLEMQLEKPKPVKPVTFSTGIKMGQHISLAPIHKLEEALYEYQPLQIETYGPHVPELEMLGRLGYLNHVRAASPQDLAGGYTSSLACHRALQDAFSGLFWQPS

Regarding `C=CC(=O)N1CCC=C(c2ccc(C(C)C(=O)Nc3cc(C4CC4)[nH]n3)cn2)C1` (single isomer, unassigned) [Compound 37, 2-(1′-acryloyl-1′,2′,5′,6′-tetrahydro-[2,3′-bipyridin]-5-yl)-N-(5-cyclopropyl-1H-pyrazol-3-yl)propanamide], the half-inhibitory concentration (IC50) (commonly the midpoint of a concentration-inhibition curve) came to 3 nM in assay [1] and 29 nM in assay [2]. Besides, in assay [3] (Jurkat cells, 6 hours), the “CDK12 Target Occupancy (Tocc50) μM in Jurkat cells” value (shortened to “CDK12 Target Occupancy (Tocc50) μM”) was 0.012 µM. In assay [4], the dissociation constant Kd (usually the equilibrium constant for the complex coming apart) was < 25 nM.
In the case of `C=CC(=O)N1CCC=C(c2ccc(C(C)C(=O)Nc3cc(C4CC4)[nH]n3)cc2)CC1` (stereo not shown) [Compound 9, 2-(4-(1-acryloyl-2,3,6,7-tetrahydro-1H-azepin-4-yl)phenyl)-N-(5-cyclopropyl-1H-pyrazol-3-yl)propanamide], the concentration for half-maximal inhibition (IC50) in assay [1] came to 21 nM; in assay [2], 240 nM; in assay [5] (setting [6]), 6580 nM. In addition, the “Ratio CDK7/CDK13” value in assay [1] stood at 313.57. In addition, the “Ratio CDK7/CDK12” value in assay [2] was determined as 27.43. Moreover, in assay [4], the Kd lay in the range of 25 to 100 nM.
Turning to `C=CC(=O)N1CCC(c2ccc([C@H](C)C(=O)Nc3cc(C4CC4)[nH]n3)cc2)CC1` [Compound 12, (S)-2-(4-(1-acryloylpiperidin-4-yl)phenyl)-N-(5-cyclopropyl-1H-pyrazol-3-yl)propanamide], the half-maximal inhibitory concentration (IC50) in assay [1] came out at 7 nM; in assay [2], 151 nM; in assay [5] (setting [6]) it was 2830 nM. In addition, the “Ratio CDK7/CDK13” value in assay [1] is reported as 404.28. The “Ratio CDK7/CDK12” value in assay [2] is 18.74. Also, in assay [3] (Jurkat cells, 6 hours), the “CDK12 Target Occupancy (Tocc50) μM” value was determined as 0.080 µM.
For `C=CC(=O)N1CCN(c2ccc(C(C)C(=O)Nc3cc(C4CC4)[nH]n3)cn2)CC1` (stereo not shown) [Compound 20, 2-(6-(4-acryloylpiperazin-1-yl)pyridin-3-yl)-N-(5-cyclopropyl-1H-pyrazol-3-yl)propanamide], in assay [1], the IC50 came to 94 nM and the “Ratio CDK7/CDK13” value worked out at 22.23. In addition, in assay [2], the “Ratio CDK7/CDK12” value was 21.11 and it took 99 nM to reach half-maximal inhibition (IC50). The 50% inhibitory concentration (IC50) in assay [5] (setting [6]) was 2090 nM. The dissociation constant (Kd) in assay [4] is < 25 nM.
As for `C=CC(=O)N1CCC=C(c2ccc([C@H](C)C(=O)Nc3cc(C4CC4)[nH]n3)cc2)C1` [Compound 34, (S)-2-(4-(1-acryloyl-1,2,5,6-tetrahydropyridin-3-yl)phenyl)-N-(5-cyclopropyl-1H-pyrazol-3-yl)propanamide], the concentration for half-maximal inhibition (IC50) was 4.3 nM in assay [1] and 189 nM in assay [2]. For the same compound, the “CDK12 Target Occupancy (Tocc50) μM” value in assay [3] (Jurkat cells, 6 hours) was 0.050 µM. Further, the Kd in assay [4] is < 25 nM.
In the case of `C=CC(=O)N1CCC=C(c2ccc(C(C)C(=O)Nc3cc(C4CC4)[nH]n3)cn2)C1` (stereo not shown) [Compound 35, 2-(1′-acryloyl-1′,2′,5′,6′-tetrahydro-[2,3′-bipyridin]-5-yl)-N-(5-cyclopropyl-1H-pyrazol-3-yl)propanamide], in assay [1], the IC50 came out at 6 nM and the “Ratio CDK7/CDK13” value is 25.5. Moreover, in assay [2], the “Ratio CDK7/CDK12” value amounted to 5.1 and the IC50 turned out to be 30 nM. Moreover, in assay [5] (setting [6]), the 50% inhibitory concentration (IC50) came out at 153 nM. Besides, the Kd in assay [4] is < 25 nM.
Consider `C=CC(=O)N1CC=C(c2ccc(C(C)C(=O)Nc3cc(C4CC4)[nH]n3)cc2F)CC1` (stereo not shown) [Compound 44, 2-(4-(1-acryloyl-1,2,3,6-tetrahydropyridin-4-yl)-3-fluorophenyl)-N-(5-cyclopropyl-1H-pyrazol-3-yl)propanamide], for which, in assay [1], the half-maximal inhibitory concentration (IC50) stood at 5.8 nM and the “Ratio CDK7/CDK13” value is listed as 151.72. In assay [2], the “Ratio CDK7/CDK12” value is recorded as 97.77 and the IC50 was found to be 9 nM. Besides, the half-inhibitory concentration (IC50) in assay [5] (setting [6]) worked out at 880 nM. Besides, the “CDK12 Target Occupancy (Tocc50) μM” value in assay [3] (Jurkat cells, 6 hours) turned out to be 0.009 µM.
As to `C=CC(=O)N1CC=C(c2ccc(C(C)C(=O)Nc3cc(C4CC4)[nH]n3)cn2)C1` (stereo not shown) [Compound 46, 2-(6-(1-acryloyl-2,5-dihydro-1H-pyrrol-3-yl)pyridin-3-yl)-N-(5-cyclopropyl-1H-pyrazol-3-yl)propanamide], the IC50 is 6.9 nM in assay [1] and 32 nM in assay [2]. For the same compound, in assay [3] (Jurkat cells, 6 hours), the “CDK12 Target Occupancy (Tocc50) μM” value was found to be 0.003 µM.
As to `C#CC(=O)N1CC=C(c2ccc(C(C)C(=O)Nc3cc(C4CC4)[nH]n3)cn2)CC1` (stereo not shown) [Compound 50, N-(5-cyclopropyl-1H-pyrazol-3-yl)-2-(1′-propioloyl-1′,2′,3′,6′-tetrahydro-[2,4′-bipyridin]-5-yl)propanamide], in assay [1], the IC50 came to 7 nM and the “Ratio CDK7/CDK13” value is reported as 1.71. Besides, the half-maximal inhibitory concentration (IC50) in assay [5] is 12 nM. The “CDK12 Target Occupancy (Tocc50) μM” value in assay [3] stood at 0.038 µM.
On to `CC#CC(=O)N1CCC=C(c2ccc(C(C)C(=O)Nc3cc(C4CC4)[nH]n3)cn2)C1` (stereo not shown) [Compound 52, 2-(1′-(but-2-ynoyl)-1′,2′,5′,6′-tetrahydro-[2,3′-bipyridin]-5-yl)-N-(5-cyclopropyl-1H-pyrazol-3-yl)propanamide], for which the figures for the half-maximal inhibitory concentration (IC50) in assay [1], in assay [2] and in assay [5] (setting [6]) were 19 nM, 227 nM and 2190 nM, respectively. Also, the “Ratio CDK7/CDK13” value in assay [1] came out at 115.26. In addition, the “Ratio CDK7/CDK12” value in assay [2] is 9.64. Further, the “CDK12 Target Occupancy (Tocc50) μM” value in assay [3] (Jurkat cells, 6 hours) came out at 0.179 µM.
Regarding `C=CC(=O)N1CC=C(c2ccc(CC(=O)Nc3cc(C4CC4)[nH]n3)cn2)C1` [Compound 53, 2-(6-(1-acryloyl-2,5-dihydro-1H-pyrrol-3-yl)pyridin-3-yl)-N-(5-cyclopropyl-1H-pyrazol-3-yl)acetamide], in assay [1], the half-maximal inhibitory concentration (IC50) was found to be 0.9 nM and the “Ratio CDK7/CDK13” value stood at 8655.55. Besides, in assay [2], the “Ratio CDK7/CDK12” value is on record as 779 and the IC50 amounted to 10 nM. Moreover, the IC50 in assay [5] (setting [6]) stood at 7790 nM. In addition, in assay [3] (Jurkat cells, 6 hours), the “CDK12 Target Occupancy (Tocc50) μM” value turned out to be 0.014 µM.
`C#CC(=O)N1CCC=C(c2ccc(CC(=O)Nc3cc(C4CC4)[nH]n3)cn2)C1` [Compound 58, N-(5-cyclopropyl-1H-pyrazol-3-yl)-2-(1′-propioloyl-1′,2′,5′,6′-tetrahydro-[2,3′-bipyridin]-5-yl)acetamide]: the values for the IC50 in assay [1] and in assay [2] were 84 nM and 49 nM, respectively. Besides, the “CDK12 Target Occupancy (Tocc50) μM” value in assay [3] (Jurkat cells, 6 hours) turned out to be 0.0097 µM.
In turn, `C#CC(=O)N1CC=C(c2ccc(CC(=O)Nc3cc(C4CC4)[nH]n3)cn2)C1` [Compound 60, N-(5-cyclopropyl-1H-pyrazol-3-yl)-2-(6-(1-propioloyl-2,5-dihydro-1H-pyrrol-3-yl)pyridin-3-yl)acetamide] had a half-maximal inhibitory concentration (IC50) in assay [2] of 12 nM. In addition, the “CDK12 Target Occupancy (Tocc50) μM” value in assay [3] (Jurkat cells, 6 hours) came to 0.0088 µM.
For the compound `N#CN1CCC=C(c2ccc(CC(=O)Nc3cc(C4CC4)[nH]n3)cn2)C1` [Compound 61, 2-(1′-cyano-1′,2′,5′,6′-tetrahydro-[2,3′-bipyridin]-5-yl)-N-(5-cyclopropyl-1H-pyrazol-3-yl)acetamide], in assay [2], the IC50 came to 6 nM. Also, in assay [3] (Jurkat cells, 6 hours), the “CDK12 Target Occupancy (Tocc50) μM” value is 0.007 µM.
